Among the data in patent publication EP4725957A1, “GROUP OF CYCLIC ALKALINE LIPOPEPTIDE COMPOUNDS, AND PREPARATION METHOD THEREFOR AND USE THEREOF” (Institute of Medicinal Biotechnology, Chinese Academy of …, priority 2023, dated 2024) are MIC and IC50 values, retold here.

What all share (format): cell-based
Data set [1] deals with Acinetobacter baumannii ABA19-1. Conditions: ABA19-1. In a few lines:
(§1)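 Broth microdilution per CLSI in Mueller-Hinton broth. Compounds were tested at final concentrations of 64 to 0.03 mg/L (two-fold steps) against an inoculum of (2-4) × 10^5 CFU/mL, with incubation at 35-37°C for 16-20 h to give the MIC.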

Data set [2] concerns Acinetobacter baumannii NCTC 13304 (OXA-27). The settings on record: NCTC 13304. In a few lines:
as §1

The test system of data set [3] is Escherichia coli ATCC BAA-2340 (KPC). The settings on record: ATCC BAA-2340. In short, it runs like this: as §1
In data set [4] the test system is Escherichia coli ATCC BAA-2523. The settings on record: ATCC BAA-2523. In a few lines:
as §1

The subject of data set [5] is Klebsiella pneumoniae ATCC BAA-1705 (KPC). Conditions: ATCC BAA-1705. In short, it runs like this:
as §1

In data set [6] the test system is Klebsiella pneumoniae KPN+19-15. The settings on record: KPN+19-15. In a few lines:
as §1

Data set [7] concerns Pseudomonas aeruginosa ATCC 27853. Conditions: ATCC 27853. In a few lines: as §1
The subject of data set [8] is Pseudomonas aeruginosa PAE19-3. Conditions: PAE19-3. In short, it runs like this: as §1
A short description of data set [9]: Nephrotoxicity assay: in vitro cytotoxicity of HK-2 cells by CCK-8 assay. Conditions: human, HK-2 cells (human renal), 72 h incubation with drug-containing medium. In a few lines:
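HK-2 human renal cells in RPMI-1640 with 10% FBS were exposed to compounds at final 12.5–500 µg/mL for 72 h, then CCK-8 for 3 h and OD450 read. Viability was normalised to drug-free wells; IC50 came from logarithmic regression over three repeats, with polymyxin B as positive drug.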
Background: Tetrazolium dyes change colour on reduction, which living cells bring about.

Values after ≈ are worked out from the molar mass of the structure shown. Bridge positions count the residues as written; N and C are the ends. Square brackets hold non-standard residues; d marks the D form. Peptide text beside a SMILES is read from it. * marks the point of attachment. Heptanoyl(6-Me) = CC(C)CCCCC(=O)*; Sulfomethyl = O=S(=O)(O)C*; Nonanoyl = CCCCCCCCC(=O)*; X1 = CC[C@H](C)CCCCC(=O)*; dDab = NCC[C@@H](N)C(=O)O; Heptanoyl = CCCCCCC(=O)*; Octanoyl = CCCCCCCC(=O)*; Orn = NCCC[C@H](N)C(=O)O; dDap = NC[C@@H](N)C(=O)O; Dab = NCC[C@H](N)C(=O)O; Dap = NC[C@H](N)C(=O)O

By MIC is commonly meant the smallest concentration in the dilution series that meets the test's criterion for growth inhibition. Read a low MIC as a more susceptible organism. As usually defined, the IC50 is the midpoint of a concentration-inhibition curve. High values mean a need for much substance, low ones inhibition by little substance.

On to `CC[C@H](C)CCCCC(=O)N[C@@H](CCN)C(=O)N[C@H](C(=O)N[C@@H](CCCN)C(=O)N[C@H]1CCNC(=O)[C@H]([C@@H](C)O)NC(=O)[C@H](CCN)NC(=O)[C@H](CCN)NC(=O)[C@H]([C@@H](C)O)NC(=O)[C@@H](Cc2ccccc2)NC(=O)[C@H](CCN)NC1=O)[C@@H](C)O` [Compound 26, (S)-6-methyloctanoyl-Dab-Thr-Orn-ring(4-10)[Dab-Dab-D-Phe-Thr-Dab-Dab-Thr]] (X1-[Dab]T[Orn][Dab][Dab][dF]T[Dab][Dab]T; lactam 4-C), for which the MIC was 0.125 mg/L (≈ 0.104 µM) in [1]; 0.06 mg/L (≈ 0.0498 µM) in data set [2]; ≤0.03 mg/L in data set [3]; ≤0.03 mg/L in [4]; ≤0.03 mg/L in [5]; ≤0.03 mg/L in data set [6]. The MIC in [7] is ≤0.03 mg/L; in data set [8] it was 0.25 mg/L (≈ 0.207 µM). The concentration for half-maximal inhibition (IC50) at 72 h in data set [9] was > 500 mg/L.

On to `CCCCCCCCC(=O)N[C@@H](CCN)C(=O)N[C@H](C(=O)N[C@H](CN)C(=O)N[C@H]1CCNC(=O)[C@H]([C@@H](C)O)NC(=O)[C@H](CCN)NC(=O)[C@H](CCN)NC(=O)[C@H]([C@@H](C)O)NC(=O)[C@@H](Cc2ccccc2)NC(=O)[C@H](CCN)NC1=O)[C@@H](C)O` [Compound 5, Nonanoyl-Dab-Thr-D-Dap-ring(4-10)[Dab-Dab-D-Phe-Thr-Dab-Dab-Thr]] (Nonanoyl-[Dab]T[dDap][Dab][Dab][dF]T[Dab][Dab]T; lactam 4-C), for which the MIC in data set [1], in data set [2], in data set [3], in data set [4], in data set [5] and in [6] was 0.06 mg/L (≈ 0.051 µM) in each case. Further, the MIC in data set [7] worked out at 0.06 mg/L (≈ 0.051 µM); in [8], 0.5 mg/L (≈ 0.425 µM). Also, the midpoint of inhibition in data set [9], the IC50 at 72 h, lay at 380 ± 30.5 mg/L (≈ 323 µM).

For `CCCCCCC(=O)N[C@@H](CCN)C(=O)N[C@H](C(=O)N[C@H](CN)C(=O)N[C@H]1CCNC(=O)[C@H]([C@@H](C)O)NC(=O)[C@H](CCN)NC(=O)[C@H](CCN)NC(=O)[C@H](CC(C)C)NC(=O)[C@@H](Cc2ccccc2)NC(=O)[C@H](CCN)NC1=O)[C@@H](C)O` [Compound 34, Heptanoyl-Dab-Thr-D-Dap-ring(4-10)[Dab-Dab-D-Phe-Leu-Dab-Dab-Thr]] (Heptanoyl-[Dab]T[dDap][Dab][Dab][dF]L[Dab][Dab]T; lactam 4-C), the minimal inhibitory concentration (MIC) in [1], in data set [2], in [3], in [4], in data set [5] and in data set [6] was 0.06 mg/L (≈ 0.0517 µM) in each case. In addition, the MIC in data set [7] turned out to be 0.06 mg/L (≈ 0.0517 µM); in data set [8] it was 0.5 mg/L (≈ 0.431 µM). Also, it took 298 ± 3.7 mg/L (≈ 256 µM) to reach half-maximal inhibition in data set [9] (IC50 at 72 h).

As for `CCCCCCCCC(=O)N[C@@H](CN)C(=O)N[C@H](C(=O)N[C@H](CO)C(=O)N[C@H]1CCNC(=O)[C@H]([C@@H](C)O)NC(=O)[C@H](CCN)NC(=O)[C@H](CCN)NC(=O)[C@H]([C@@H](C)O)NC(=O)[C@@H](Cc2ccccc2)NC(=O)[C@H](CCN)NC1=O)[C@@H](C)O` [Compound 55, Nonanoyl-Dap-Thr-D-Ser-ring(4-10)[Dab-Dab-D-Phe-Thr-Dab-Dab-Thr]] (Nonanoyl-[Dap]T[dS][Dab][Dab][dF]T[Dab][Dab]T; lactam 4-C), the MIC turned out to be 0.25 mg/L (≈ 0.215 µM) in [1]; 0.25 mg/L (≈ 0.215 µM) in data set [2]; 0.03 mg/L (≈ 0.0258 µM) in data set [3]; 0.03 mg/L (≈ 0.0258 µM) in data set [4]; 0.25 mg/L (≈ 0.215 µM) in data set [5]; 0.5 mg/L (≈ 0.429 µM) in [6]. Moreover, the MIC in [7] worked out at 64 mg/L (≈ 55 µM); in data set [8], 8 mg/L (≈ 6.87 µM). The IC50 at 72 h in data set [9] turned out to be 300 ± 10.8 mg/L (≈ 258 µM).

Consider `CCCCCCC(=O)N[C@@H](CCN)C(=O)N[C@H](C(=O)N[C@H](CCN)C(=O)N[C@H]1CCNC(=O)[C@H]([C@@H](C)O)NC(=O)[C@H](CCN)NC(=O)[C@H](CCN)NC(=O)[C@H]([C@@H](C)O)NC(=O)[C@@H](Cc2ccccc2)NC(=O)[C@H](CCN)NC1=O)[C@@H](C)O` [Compound 14, Heptanoyl-Dab-Thr-D-Dab-ring(4-10)[Dab-Dab-D-Phe-Thr-Dab-Dab-Thr]] (Heptanoyl-[Dab]T[dDab][Dab][Dab][dF]T[Dab][Dab]T; lactam 4-C), for which the MIC in data set [1] amounted to 0.03 mg/L (≈ 0.0258 µM); in data set [2], 0.03 mg/L (≈ 0.0258 µM); in data set [3] it was 0.03 mg/L (≈ 0.0258 µM); in data set [4], 0.03 mg/L (≈ 0.0258 µM); in data set [5] it was 0.06 mg/L (≈ 0.0516 µM); in data set [6], 0.03 mg/L (≈ 0.0258 µM). Besides, the MIC in data set [7] and in data set [8] was 2 mg/L (≈ 1.72 µM) throughout. The IC50 at 72 h in data set [9] was > 500 mg/L.

With `CCCCCCCCC(=O)N[C@@H](CCN)C(=O)N[C@H](C(=O)N[C@@H](CN)C(=O)N[C@H]1CCNC(=O)[C@H]([C@@H](C)O)NC(=O)[C@H](CCN)NC(=O)[C@H](CCN)NC(=O)[C@H](CC(C)C)NC(=O)[C@@H](Cc2ccccc2)NC(=O)[C@H](CCN)NC1=O)[C@@H](C)O` [Compound 40, Nonanoyl-Dab-Thr-Dap-ring(4-10)[Dab-Dab-D-Phe-Leu-Dab-Dab-Thr]] (Nonanoyl-[Dab]T[Dap][Dab][Dab][dF]L[Dab][Dab]T; lactam 4-C), the MIC in [1], in data set [2], in data set [3], in data set [4], in data set [5] and in data set [6] was 0.06 mg/L (≈ 0.0504 µM) throughout. For the same compound, the MIC in data set [7] amounted to 0.06 mg/L (≈ 0.0504 µM); in [8], 0.5 mg/L (≈ 0.42 µM). In addition, half-maximal inhibition in data set [9] (IC50 at 72 h) was put at 158 ± 6.4 mg/L (≈ 133 µM).

Take `CCCCCCCC(=O)N[C@@H](CCN)C(=O)N[C@H](C(=O)N[C@H](CO)C(=O)N[C@H]1CCNC(=O)[C@H]([C@@H](C)O)NC(=O)[C@H](CCN)NC(=O)[C@H](CCN)NC(=O)[C@H]([C@@H](C)O)NC(=O)[C@@H](Cc2ccccc2)NC(=O)[C@H](CN)NC1=O)[C@@H](C)O` [Compound 63, Octanoyl-Dab-Thr-D-Ser-ring(4-10)[Dab-Dap-D-Phe-Thr-Dab-Dab-Thr]] (Octanoyl-[Dab]T[dS][Dab][Dap][dF]T[Dab][Dab]T; lactam 4-C): the minimal inhibitory concentration (MIC) in data set [1] was 0.25 mg/L (≈ 0.217 µM); in data set [2], 0.25 mg/L (≈ 0.217 µM); in data set [3], 0.125 mg/L (≈ 0.109 µM); in [4], 0.125 mg/L (≈ 0.109 µM); in [5] it was 0.25 mg/L (≈ 0.217 µM); in data set [6] it was 0.5 mg/L (≈ 0.435 µM). Moreover, the MIC was determined as 64 mg/L (≈ 55.6 µM) in data set [7] and 4 mg/L (≈ 3.48 µM) in data set [8]. Besides, the IC50 at 72 h in data set [9] was > 500 mg/L.

As to `CC(C)CCCCC(=O)N[C@@H](CCN)C(=O)N[C@H](C(=O)N[C@@H](CN)C(=O)N[C@H]1CCNC(=O)[C@H]([C@@H](C)OCS(=O)(=O)O)NC(=O)[C@H](CCN)NC(=O)[C@H](CCN)NC(=O)[C@H]([C@@H](C)O)NC(=O)[C@@H](Cc2ccccc2)NC(=O)[C@H](CCN)NC1=O)[C@@H](C)O` [Compound 115, 6-methylheptanoyl-Dab-Thr-Dap-ring(4-10)[Dab-Dab-D-Phe-Thr-Dab-Dab-Thr(CH2SO3H)]] ({Heptanoyl(6-Me)}-[Dab]T[Dap][Dab][Dab][dF]T[Dab][Dab]T(Sulfomethyl); lactam 4-C), the minimum inhibitory concentration (MIC) in [1] came to 0.06 mg/L (≈ 0.0477 µM); in data set [2], 0.06 mg/L (≈ 0.0477 µM); in data set [3] it was 0.03 mg/L (≈ 0.0239 µM); in data set [4], 0.03 mg/L (≈ 0.0239 µM); in data set [5], 0.125 mg/L (≈ 0.0994 µM); in data set [6], 0.125 mg/L (≈ 0.0994 µM). The minimal inhibitory concentration (MIC) in [7] and in data set [8] was 0.25 mg/L (≈ 0.199 µM) in each case. Besides, in data set [9], the concentration for half-maximal inhibition (IC50) at 72 h is > 500 mg/L.

For the compound `CCCCCCC(=O)N[C@@H](CN)C(=O)N[C@H](C(=O)N[C@H](CCN)C(=O)N[C@H]1CCNC(=O)[C@H]([C@@H](C)O)NC(=O)[C@H](CCN)NC(=O)[C@H](CCN)NC(=O)[C@H](CC(C)C)NC(=O)[C@@H](CC(C)C)NC(=O)[C@H](CCN)NC1=O)[C@@H](C)O` [Compound 99, Heptanoyl-Dap-Thr-D-Dab-ring(4-10)[Dab-Dab-D-Leu-Leu-Dab-Dab-Thr]] (Heptanoyl-[Dap]T[dDab][Dab][Dab][dL]L[Dab][Dab]T; lactam 4-C), the minimum inhibitory concentration (MIC) in [1] was 0.03 mg/L (≈ 0.0266 µM); in data set [2] it was 0.03 mg/L (≈ 0.0266 µM); in [3], 0.06 mg/L (≈ 0.0532 µM); in data set [4], 0.06 mg/L (≈ 0.0532 µM); in [5], 0.03 mg/L (≈ 0.0266 µM); in data set [6], 0.03 mg/L (≈ 0.0266 µM). Besides, the minimum inhibitory concentration (MIC) in data set [7] and in data set [8] was 1 mg/L (≈ 0.887 µM) in each case. In data set [9], this compound had a half-maximal inhibitory concentration (IC50) at 72 h of 317 ± 18.1 mg/L (≈ 281 µM).
